In one test the test system is pre-oligodendrocytes. The test can be described thus: Pre-oligodendrocyte proliferation, CyQUANT NF Cell Proliferation assay. Format: cell-based, rat. To be noted: for IC50: exposure 72-96 h, 1 nM to 100 μM, cellular DNA content fluorescence. The procedure: Purified oligodendrocyte progenitor cell cultures were prepared as described (Othman et al., 2003, Glia 44:166-172). In brief, primary rat mixed glial cell cultures were isolated from whole brains of postnatal day (P) 1 rats, dissociated into single cells, and cultured into poly-D-lysine (PDL, Sigma-Aldrich, St. Louis, Mo.) coated T75 tissue culture flasks. Plating medium consisted of Dulbecco's modified Eagle's medium (DMEM, Invitrogen, Carlsbad, Calif.) supplemented with 10% fetal bovine serum (FBS; InVitrogen, Carlsbad, Calif.), 2 mM L-glutamine, […]. Tissue cultures were maintained at 37° C. in a humidified 5% CO2 incubator, and medium was exchanged every 3 days. Once confluent (after 7-9 days), microglia were separated by mechanical shaking of flasks on a rotary shaker for 60 min at 200 rpm and removed. After addition of fresh medium, the remaining cells were allowed to recover overnight before repeating the mechanical shaking for an additional 16 h at 200 rpm to isolate oligodendrocyte progenitor cells. To ensure purity of oligodendrocyte progenitor cell cultures, the isolated cells were transferred to a tissue culture dish, from which the loosely attached oligodendrocyte progenitor cells were detached by gentle shaking after 60 min, leaving behind attached microglia and astrocytes. Oligodendrocyte progenitor cells were plated onto PDL coated 96 well plates using an automated dispenser and allowed to adhere to the plates over the next 1-2 days. This procedure yielded 98% A2B5-positive (OPC marker), and 2% MBP-positive (mature OL marker) cells. GFAP-positive (astrocyte marker) or O22A-positive (microglia marker) cells could not be detected in cultures prepared in this manner.
Cells were exposed to various KATP channel stimulators, with concentrations of compounds ranging from 1 nM to 100 μM, for 72-96 h. Pre-oligodendrocytes were cultured in 384-well plates, at a concentration of 10,000 cells per well. Cultures were washed two times with DMEM to remove any residual serum and then the respective solutions of KATP channel activators were added daily in an incubation buffer of DMEM with 0.5% FBS+10 μg/ml biotin and N2 supplement. Cells were then placed at 37° C. in a humidified atmosphere containing 5% CO2. All concentrations were tested in triplicate and each study was repeated twice.
To evaluate cell proliferation in response to KATP channel stimulators, the CyQUANT® NF Cell Proliferation assay (Invitrogen, Carlsbad, Calif.) was used according to the manufacturer's instructions. This assay measured cellular DNA content as a direct index of cell proliferation. Since cellular DNA content is highly proportional to cell number, this is a very accurate way to assess cell proliferation specifically. At the end of drug exposure, medium was removed and a stock solution of the green-fluorescent CyQUANT GR dye (prepared according to manufacturer's instructions) was added. […] Fluorescence was measured using an Envision Multilabel reader (Perkin-Elmer; Excitation: 480 nm, Emission: 530 nm).

Another test relates to C57BL/6 mice. The experiment in a line: Hypoxia-induced periventricular white matter injury in neonatal mice. Format: in vivo, mouse. To be noted: for myelin basic protein-labeling (myelination): vs vehicle. The procedure: The effect of diazoxide in hypoxia-induced periventricular white matter injury was assessed. C57BL/6 mice were reared in […] 10% O2 from P3 to P12. Pups were treated with daily injection of either diazoxide or vehicle, with at least eight animals in each treatment group. Mice were weighed every two days. At P12, brains were removed. Ventricle size and myelin basic protein (MBP) labeling were assessed. C57BL/6 mice were exposed to low or normal oxygen conditions from P3-P12 (Turner et al., 2003, Proc. Natl. Acad. Sci. USA 100:11718-11722). In brief, litters of pups (P3) were placed with the dam in a Plexiglas chamber, in which oxygen levels were maintained at 9.5±1.0%, O2 levels were continuously monitored using a Cameron Instrument (Ontario, Canada) dual channel oxygen monitor attached to O2 electrodes placed at each end of the chamber. Control animals were kept in room air (˜22%) outside the Plexiglas chamber. Animals were removed from the chamber daily for less than 15 min to allow for diazoxide (10 mg/kg i.p.) or vehicle administration, as well as observation of weight gain. Mice were euthanized at P12, brains were harvested and shock frozen in ice cold (−20° C.) 2-methylbutane and stored at −80° C. until assessment of ventricular size or MBP immunocytochemistry (see below). At least eight animals were studied in each treatment group. Ventricle size was determined as reported (Turner et al., 2003, Proc. Natl. Acad. Sci. USA 100:11718-11722). Animals were weighed, anesthetized, and decapitated. Brains were shock frozen in ice cold (−20° C.) 2-methylbutane and stored at −80° C. Coronal sections spanning the brain were cut in a cryostat at a thickness of 16 μm in a Zeiss cryostat. Sections were mounted onto glass slides and stained with Phoenix Blue (Thermo Scientific, Waltham, Mass.). […] Ventricular sizes were quantified using Sigma Scan Pro Image Analysis Version 5.0.0 (SPSS Inc., Chicago, Ill.). The ventricular area, outlined by the Phoenix Blue staining, was measured and numerically integrated across the thickness of the slice. […]

By IC50 is commonly meant the concentration that gives 50% inhibition. In turn, `CCC(C)(C)/N=C(/NC#N)Nc1cccnc1` [P 1075, (E)-1-cyano-2-tert-pentyl-3-(pyridin-3-yl)guanidine] had a half-inhibitory concentration (IC50) in the test on pre-oligodendrocytes (Rattus norvegicus) of 0.1 µM. In the case of `CC(=O)N(O)[C@@H]1c2cc(C#N)ccc2OC(C)(C)[C@H]1O` [Y26763, N-((3S,4R)-6-cyano-3-hydroxy-2,2-dimethylchroman-4-yl)-N-hydroxyacetamide], half-maximal inhibition with pre-oligodendrocytes (Rattus norvegicus) (IC50) was put at 0.2 µM.

In turn, `CC(O)(C(=O)Nc1ccc(S(=O)(=O)c2ccccc2)cc1)C(F)(F)F` (stereo not drawn) [ZM26600, 3,3,3-trifluoro-2-hydroxy-2-methyl-N-(4-(phenylsulfonyl)phenyl) propanamide] had an IC50 with pre-oligodendrocytes of 2.5 µM. Regarding `CC1=NS(=O)(=O)c2cc(Cl)ccc2N1` [diazoxide, 7-chloro-3-methyl-4H-1,2,4-benzothiadiazine 1,1-dioxide], in the test on pre-oligodendrocytes (Rattus norvegicus, quoted in the cell toxicity study, read-out: observed EC50 value (pre-oligodendrocyte proliferation)), the EC50 worked out at 0.01 µM. Moreover, the “myelin basic protein-labeling (myelination)” value in the test on C57BL/6 mice (chronic hypoxia P3-P12, 10 mg/kg i.p. daily) is on record as “markedly improved”; in the test on C57BL/6 mice (room air, 10 mg/kg i.p. daily) it was “More myelin basic protein-labeling”. For the same compound, the “ventricle size (ventriculomegaly)” value in the test with C57BL/6 mice (hypoxia 10% O2 P3-P12, 10 mg/kg i.p. daily, p<0.05 ANOVA vs hypoxia-vehicle) is “not enlarged”. Compound `CC1(C)Oc2ccc(C#N)cc2[C@@H](N2CCCC2=O)[C@@H]1O` [levcromakalim, (3S,4R)-3-hydroxy-2,2-dimethyl-4-(2-oxopyrrolidin-1-yl)chroman-6-carbonitrile] showed an IC50 in the test on pre-oligodendrocytes (Rattus norvegicus) of 2.5 µM. Compound `CC(N/C(=N\C#N)Nc1ccncc1)C(C)(C)C` (stereo not drawn) [pinacidil, (E)-1-(3,3-dimethylbutan-2-yl)-2-cyano-3-(pyridin-4-yl)guanidine] came in with an IC50 in the test on pre-oligodendrocytes (Rattus norvegicus) of 10 µM.

Source of the values: patent publication US20120100229A1, “Treatment and Prevention of White Matter Injury with KATP Channel Activators” (Yale University, priority 2009, published 2012).
